Counter-ions that a name gives are not always drawn. Like-named read-outs stand apart in the source and are kept apart here.
Columns and labels:
[1] = molecular target: T1, central muscarinic M-1 receptors (Rattus norvegicus, UniProt P08482); experiment: biochemical; conditions: rat brain homogenate, 1.0 nM 3H-pirenzepine, 60 min at 25 °C; read-out: Binding IC50, 3H-Pirenzepine
T1 sequence (P08482 1-460): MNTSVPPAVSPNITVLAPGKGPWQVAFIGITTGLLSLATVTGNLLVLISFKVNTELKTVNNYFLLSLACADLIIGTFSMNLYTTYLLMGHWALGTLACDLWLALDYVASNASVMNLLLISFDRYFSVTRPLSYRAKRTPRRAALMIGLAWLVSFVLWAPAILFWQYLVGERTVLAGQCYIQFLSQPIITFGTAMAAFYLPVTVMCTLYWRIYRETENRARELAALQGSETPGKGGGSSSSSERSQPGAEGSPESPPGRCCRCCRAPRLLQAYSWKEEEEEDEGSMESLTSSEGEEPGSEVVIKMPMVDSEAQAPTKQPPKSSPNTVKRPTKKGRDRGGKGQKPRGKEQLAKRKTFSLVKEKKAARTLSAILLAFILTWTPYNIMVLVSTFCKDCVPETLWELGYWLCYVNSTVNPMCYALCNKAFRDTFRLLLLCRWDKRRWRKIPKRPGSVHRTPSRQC
Procedure: ^3 H-pirenzepine binding was performed essentially as described by Watson et al., 1983, the conditions being very much the same as for ^3 H-oxotremorine binding, except that aliquots were incubated with 1.0 nM ^3 H-pirenzepine for 60 min. at 25° C. and that the reaction was stopped by direct filtration followed by 3 washes with 4 ml buffer.

[2] = molecular target: central cholinergic receptors; experiment: 3H-oxotremorine M binding, rat brain homogenates; conditions: rat brain homogenate, pH 7.4, 40 min at 30 °C; read-out: Binding IC50, 3H-Oxo-M
Procedure: Briefly, rat brains were homogenized in 100 vol (w/v) 10 mM Na,K-phosphate buffer (pH 7.4) and aliquots incubated with ^3 H-oxotremorine M (84.9 Ci/mmol, NEN) alone or in the presence of test compound in a total volume of 1.5 ml for 40 min. at 30° C. The reaction was stopped by adding 5 ml ice-cold buffer and filtered through Whatman GF/B filters soaked previously in 0.1% polyethylenimin (Sigma) for minimum 30 min. The filters were washed once with the same volume of buffer, transferred to scintillation vials and extracted in scintillation fluid (Pico-fluor 15, Packard) for at least two hours before counted in a liquid scintillation spectrometer (Beckman LS 1800). Non-specific binding was estimated at 10 μM atropine and all estimations made in triplicate. At least two displacement curves were made for each compound tested.

[3] = cited from earlier work
[4] = cited from earlier work; remark: listed apart in the source
[5] = after peripheral administration; cited from earlier work

| SMILES | IC50 [1] | IC50 [2] | penetration of the blood-brain barrier ([3]; after peripheral administration) | hydrolysis of the ester group in vivo [4] | central effects [5] | penetration of the blood-brain barrier ([3]; in vivo) |
| --- | --- | --- | --- | --- | --- | --- |
| C#CCOc1noc2c1CNCCC2C (centres unmarked) [Example 14, 8-Methyl-3-(2-propynyloxy)-5,6,7,8-tetrahydro-4H-isoxazolo 4,5-c azepine, Fumarate] | 16 nM | 0.93 nM | – | – | – | – |
| COC(=O)C1=CCCN(C)C1 [Arecoline, methyl 1-methyl-1,2,5,6-tetrahydropyridine-3-carboxylate] | – | 1.9 nM | capable of penetrating the BBB after peripheral administration | very rapidly hydrolyzed in vivo | very weak and frequently negligible central effects | – |
| CC(C)Oc1noc2c1CNCCC2 [Example 6, 3-Isopropoxy-5,6,7,8-tetrahydro-4H-isoxazolo[4,5-c]azepine Hydrochloride] | 5 nM | 8.3 nM | – | – | – | – |
| COc1noc2c1CNCC2 [O-Methyl-THPO, reference compound] | 8600 nM | 62 nM | – | – | – | – |
| C#CCOc1noc2c1CNCCC2 [Example 9, 3-(2-Propynyloxy)-5,6,7,8-tetrahydro-4H-isoxazolo [4,5-c]azepine Hydrochloride] | 16 nM | 0.34 nM | – | – | – | – |
| CCOc1noc2c1CNCCC2 [Example 4, 3-Ethoxy-5,6,7,8-tetrahydro-4H-isoxazolo[4,5-c]azepine Hydrochloride] | 11 nM | 0.49 nM | – | – | – | – |
| CC(=O)OCC[N+](C)(C)C [AcCh, acetylcholine] | – | – | – | – | – | do not penetrate the blood-brain barrier (BBB) easily |
| COc1noc2c1CNCCC2 [Example 5, 3-Methoxy-5,6,7,8-tetrahydro-4H-isoxazolo[4,5-c]azepine Hydrochloride] | 248 nM | 2.8 nM | – | – | – | – |
